In patent US20180022711A1, “NOVEL CRYSTAL FORMS OF THE MONOSODIUM SALT OF FORAMSULFURON” (BAYER CROPSCIENCE AKTIENGESELLSCHAFT, priority 2014, published 2018):
“Also recorded” adds a separate entry of the source.

How the values were obtained:
Format in all cases: physicochemical
[1] = Hygroscopicity: open storage over water for one week at 25° C., water content by Karl Fischer titration; settings: for Water content of the sample after storage: one week at 25° C. in sealed beaker over water, Karl Fischer titration
Experimental: 100 mg each of crystal forms A, B and C were separately filled into small glass vials with snap-on caps. These three glass vials with snap-on caps were placed unsealed in a glass beaker of which the bottom was covered with a small amount of water. The glass beaker was then sealed with a reversible sealing film and stored for one week at 25° C. After this storage period, the water content of the respective sample was determined by Karl Fischer titration.

[2] = Storage of methanol-moist crystal form A and conversion into crystal form C
Experimental: In separate containers, 5 g each of crystal form A were each stirred with 20 g of MeOH and subsequently filtered off.
At 20° C., 30° C. and 35° C., the moistened products were stored for one week and a sample taken daily. These samples were dried at 65° C. and 100 mbar and the respective methanol content subsequently determined.
Already after 2 days (35° C.), 3 days (30° C.) and 7 days (20° C.), crystal form A had converted practically completely into crystal form C (MeOH content about 6.4% by weight).

[3] = Sorption/desorption curve, isothermal at 25° C.; settings: for Desorption (% by weight) / Sorption (% by weight): 25° C.
Experimental: Sorption and desorption curves of crystal form B were measured isothermically at 25° C. The sorption curve gives the water uptake at increasing relative humidity and the desorption curve gives the drying behaviour on moisture reduction.

[4] = Stability test of crystal form B in methanol; settings: suspended in methanol, stirred 7 days at 30° C., filtered and dried
Experimental: 10 g of crystal form B (MeOH content<0.01%) were suspended in 100 g of methanol and stirred for 7 days at 30° C. The product was filtered and then dried overnight at 70° C. and a pressure<100 mbar. 9.1 g of a 99.4% strength product were obtained. The methanol content in the product obtained was 0.004% by weight and the acetone content was 0.0003% by weight.

COc1cc(OC)nc(NC(=O)NS(=O)(=O)c2cc(NC=O)ccc2C(=O)N(C)C)n1.[Na] [Crystal form A, reference compound]
Water content of the sample after storage ([1]; listed as crystal form A): 15.7 % by weight | Appearance of the sample after storage ([1]; one week at 25° C. over water): very ductile and sticky | Hygroscopicity (in words) ([1]; one week at 25° C. over water): hygroscopic | Time until practically complete conversion into crystal form C ([2]; stored at 20° C.): 7 days | Time until practically complete conversion into crystal form C ([2]; stored at 30° C.): 3 days | Time until practically complete conversion into crystal form C ([2]; stored at 35° C.): 2 days

COc1cc(OC)nc(NC(=O)[N-]S(=O)(=O)c2cc(NC=O)ccc2C(=O)N(C)C)n1.[Na+] [Crystal form B, monosodium salt of foramsulfuron]
Hygroscopicity (in words) ([3]; conclusion from sorption/desorption at 25° C.): not hygroscopic; also recorded: non-hygroscopic | Desorption (% by weight) ([3]; relative humidity 10.0%): 0.846 % by weight | Sorption (% by weight) ([3]; relative humidity 10.0%): 0.100 % by weight | Desorption (% by weight) ([3]; relative humidity 20.0%): 1.227 % by weight | Sorption (% by weight) ([3]; relative humidity 20.0%): 0.201 % by weight | Desorption (% by weight) ([3]; relative humidity 30.0%): 1.495 % by weight | Sorption (% by weight) ([3]; relative humidity 30.0%): 0.313 % by weight | Desorption (% by weight) ([3]; relative humidity 40.0%): 1.760 % by weight | Sorption (% by weight) ([3]; relative humidity 40.0%): 0.444 % by weight | Desorption (% by weight) ([3]; relative humidity 50.0%): 2.086 % by weight | Sorption (% by weight) ([3]; relative humidity 50.0%): 0.566 % by weight | Desorption (% by weight) ([3]; relative humidity 60.0%): 2.269 % by weight | Sorption (% by weight) ([3]; relative humidity 60.0%): 0.684 % by weight | Desorption (% by weight) ([3]; relative humidity 70.0%): 2.485 % by weight | Sorption (% by weight) ([3]; relative humidity 70.0%): 0.864 % by weight | Desorption (% by weight) ([3]; relative humidity 80.0%): 3.016 % by weight | Sorption (% by weight) ([3]; relative humidity 80.0%): 1.085 % by weight | Desorption (% by weight) ([3]; relative humidity 90.0%): 5.151 % by weight | Sorption (% by weight) ([3]; relative humidity 90.0%): 2.335 % by weight | Water content of the sample after storage [1]: 0.4 % by weight | Appearance of the sample after storage ([1]; one week at 25° C. over water): still crystalline and powdery | Methanol content in the product obtained [4]: 0.004 % by weight

COc1cc(OC)nc(NC(=O)NS(=O)(=O)c2cc(NC=O)ccc2C(=O)N(C)C)n1.[Na] [Crystal form C]
Water content of the sample after storage ([1]; listed as crystal form C): 21.3 % by weight
